Assay results published in patent publication US20070185013A1, “Use of chk1 inhibitors to control cell proliferation” (ICOS CORPORATION, priority 2003, published 2007).

Tests used:
tumor cells = assay: Cell-based proliferation (sensitization) assay (Example 2); conditions: ratio of GI90 of the chemotherapy agent in absence to that in presence of Chk1 inhibitor
Procedure: Chk1 inhibitors were tested in a cell-based proliferation assay for the ability to sensitize tumor cells to ionizing radiation or chemotherapy agents. Chk1 inhibitors were tested in combination with 5-FU, gemicitabine, ionizing radiation, camptothecin, etoposide, hydroxyurea, cisplatin, fludarabine, Ara-C and aphidicolin. For each experiment, a serial dilution of each compound in combination with a ten-point dilution of each chemotherapy agent was included, in order to determine the concentration of chemotherapeutic required to inhibit the growth of 90% (GI90) of the cells in the presence and absence of the Chk1 inhibitor. This ratio of GI90 in the absence of Chk1 inhibitor to that in the presence of Chk1 inhibitor is called the “fold sensitization.” Fold sensitization was plotted as a function of Chk1 inhibitor concentration and the amount of drug required to yield two-fold sensitization was calculated. […] Another parameter analyzed was the fold sensitization achieved at the LD50 (the dose of compound alone that inhibits growth of 50% of cells) for the compound. These two values allow direct ranking of both the potency and toxicity of Chk1 inhibitors with respect to one another.

HT29 tumors [1] = assay: H3-P mitotic index assay in HT29 tumors; type: in vivo, mice; conditions: for mitotic index (H3-P): 100 mg/kg gemcitabine i.p.
Procedure: Chem. 271:13197-201. 1996; Goto et al., J Biol Chem. 274:25543-9, 1999). The assay protocol was as follows. Tumors from rodents treated or untreated with Chk1 activator (in the present study, chemotherapy agent) and/or Chk1 inhibitor, were excised and paraffin embedded. The tumors are cut into 6 micron thick slices and mounted on glass slides. […] The slides are then heated to 95° C. in 10 mM sodium citrate for 10 minutes followed by a 20 minute cooling step. The slides are blocked for 30 minutes with Block buffer (20% normal human serum and 2% bovine serum albumin in phosphate buffered saline containing 0.05% Triton X-100 (PBST)). The anti-phospho histone H3 antibody (Upstate Biotech, Cat. #06-570) is diluted 1:200 in the Block buffer and incubated with the slides for one hour. The slides are washed 3 times 5 minutes in PBST. The secondary antibody, donkey anti-rabbit rhodamine (Jackson, cat #711-295-152) was added for 30 minutes. The slides were then washed twice in PBST and […] of […] DAPI (Sigma) in PBS is added and allowed to stain for 30 minutes. The slides were then washed two more times in PBST and mounted with Vectashield (Vector, cat # H-1400). Slides were viewed using fluorescence microscopy. The percentage of cells stained with H3-P antibody relative to total (DAPI stained) cells were quantified using Metamorph software (Universal Imaging Corporation, Version 4.6). […] Tumors from these animals were resected, paraffin embedded and stained with an antibody to H3-P followed by a counter-stained with DAPI. The percentage of mitotic cells (positive to H3-P) was quantified at each time point. […] To determine whether checkpoint abrogation by selective Chk1 inhibitor was dose-dependent, HT29 tumor-bearing mice were pretreated with gemcitabine and 32 hours later dosed with increasing doses of selective Chk1 inhibitor. After 18 hours, tumors were harvested and stained for H3-P as described above. […] The response is saturated at 400 mg/kg.

HT29 tumors [2] = assay: Rb-Pser795 S phase marker staining of HT29 tumors; type: in vivo, mice; conditions: 100 mg/kg gemcitabine i.p., 1 to 72 hr
Text: To confirm that low H3-P staining corresponds to S phase arrest, tumors were also stained with an S phase marker, phosphorylated Rb-Pser795. Tumor slices taken in the experiment above were stained with the Rb-Pser795 antibody (Cell Signaling Cat# 9301S) and the number of positive staining cells quantified.

SMILES: Nc1ccn([C@@H]2O[C@H](CO)[C@@H](O)C2(F)F)c(=O)n1 [gemcitabine]
- Fold Sensitization to Agent by Chk1 Inhibitor (tumor cells): 12 fold
- mitotic cells (H3-P positive) (HT29 tumors [1]; 100 mg/kg gemcitabine for 48 hours alone): approximately 4%
- mitotic index (H3-P) (HT29 tumors [1]; 1-6 hr time points): approximately 3
- mitotic index (H3-P) (HT29 tumors [1]; between 12 and 24 hr after administration): approximately 1.5
- time of lowest H3-P staining (HT29 tumors [1]; HT29, treated with gemcitabine): 48 h
- time of optimal S phase arrest post-gemcitabine treatment (HT29 tumors [1]; HT29 tumors, from H3-P and Rb-Pser795 staining): 24 to 48 h
- Rb-P staining cells (HT29 tumors [2]): more Rb-P staining cells at, 24, 48 and 72 hours than at earlier timepoints
